target: T1, PIK3CA (Homo sapiens, UniProt P42336); assay: In vitro ELISA target engagement assay for PIK3CA in Jurkat cellular lysate (competition with PIK3CA Biotin Probe); format: binding; details: 1 hour at rt, then 500 nM PIK3CA Biotin Probe, read-out: Elisa Target Engagement Assay (TE50)
T1 construct: endogenous in cells; host or cells: Jurkat cell lysate
Outline: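 Competition format in Jurkat lysate: compound (serial dilutions, top 200 μM) for 1 h at rt, then 500 nM final biotinylated PIK3CA probe for 1 h at rt. Sandwich ELISA with capture antibody and Neutravidin-HRP luminescence read-out measured probe-labelled PIK3CA, giving TE50.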

T1 sequence (P42336 whole entry): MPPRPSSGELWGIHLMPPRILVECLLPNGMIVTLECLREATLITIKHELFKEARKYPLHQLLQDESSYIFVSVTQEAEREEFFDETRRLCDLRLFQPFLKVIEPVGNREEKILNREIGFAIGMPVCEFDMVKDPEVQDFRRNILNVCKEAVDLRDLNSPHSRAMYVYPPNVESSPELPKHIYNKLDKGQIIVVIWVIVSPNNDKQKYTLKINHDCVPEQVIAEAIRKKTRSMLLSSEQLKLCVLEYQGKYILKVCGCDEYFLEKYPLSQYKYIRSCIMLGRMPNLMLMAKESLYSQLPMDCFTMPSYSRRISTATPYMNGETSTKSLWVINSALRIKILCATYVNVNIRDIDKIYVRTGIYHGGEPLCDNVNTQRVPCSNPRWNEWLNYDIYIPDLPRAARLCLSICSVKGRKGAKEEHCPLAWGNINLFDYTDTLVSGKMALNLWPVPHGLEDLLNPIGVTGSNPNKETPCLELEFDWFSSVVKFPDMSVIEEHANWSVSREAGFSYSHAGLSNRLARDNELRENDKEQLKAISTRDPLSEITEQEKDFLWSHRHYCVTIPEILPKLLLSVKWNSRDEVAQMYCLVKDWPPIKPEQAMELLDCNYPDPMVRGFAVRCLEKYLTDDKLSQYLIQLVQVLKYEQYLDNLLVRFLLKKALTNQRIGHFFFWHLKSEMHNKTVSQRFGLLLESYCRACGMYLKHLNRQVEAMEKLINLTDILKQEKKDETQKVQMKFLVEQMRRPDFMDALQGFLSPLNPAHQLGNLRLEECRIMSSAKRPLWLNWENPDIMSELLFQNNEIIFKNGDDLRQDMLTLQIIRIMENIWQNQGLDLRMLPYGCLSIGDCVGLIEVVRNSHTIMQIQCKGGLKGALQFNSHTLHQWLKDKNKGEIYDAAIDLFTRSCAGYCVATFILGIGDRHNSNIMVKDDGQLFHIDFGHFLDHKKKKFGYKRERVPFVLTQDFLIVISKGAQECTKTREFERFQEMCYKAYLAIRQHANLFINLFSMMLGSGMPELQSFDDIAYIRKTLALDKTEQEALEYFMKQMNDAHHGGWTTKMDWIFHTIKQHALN
T1 sequence (P27986 whole entry partner): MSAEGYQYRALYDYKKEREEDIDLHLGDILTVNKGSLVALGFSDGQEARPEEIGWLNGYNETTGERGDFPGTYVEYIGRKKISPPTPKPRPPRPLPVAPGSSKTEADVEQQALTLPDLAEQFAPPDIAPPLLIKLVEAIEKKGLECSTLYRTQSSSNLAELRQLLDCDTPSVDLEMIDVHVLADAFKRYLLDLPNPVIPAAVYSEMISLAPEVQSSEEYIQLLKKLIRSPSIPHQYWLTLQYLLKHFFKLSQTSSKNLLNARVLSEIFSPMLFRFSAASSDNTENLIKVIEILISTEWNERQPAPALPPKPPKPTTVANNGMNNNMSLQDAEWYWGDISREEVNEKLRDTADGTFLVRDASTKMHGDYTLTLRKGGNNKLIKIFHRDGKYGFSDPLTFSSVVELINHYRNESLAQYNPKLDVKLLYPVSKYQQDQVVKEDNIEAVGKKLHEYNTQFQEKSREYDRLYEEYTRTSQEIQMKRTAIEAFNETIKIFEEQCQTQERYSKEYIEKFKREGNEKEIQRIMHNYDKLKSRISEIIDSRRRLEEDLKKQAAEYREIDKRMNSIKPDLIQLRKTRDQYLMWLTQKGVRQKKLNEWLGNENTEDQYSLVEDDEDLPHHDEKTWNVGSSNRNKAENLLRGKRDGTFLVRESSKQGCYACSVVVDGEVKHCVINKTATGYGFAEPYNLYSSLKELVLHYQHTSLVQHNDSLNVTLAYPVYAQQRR

IC50	SMILES
240 nM	C[C@H](/C=C\S(C)(=O)=O)NC(=O)C1(F)CCN(S(=O)(=O)c2cnc(C(F)(F)F)cc2-c2cccc(F)c2Cl)CC1 [Compound 209, (R,Z)-1-((4-(2-chloro-3-fluorophenyl)-6-(trifluoromethyl)pyridin-3-yl)sulfonyl)-4-fluoro-N-(4-(methylsulfonyl)but-3-en-2-yl)piperidine-4-carboxamide]
380 nM	C[C@@H](/C=C\S(C)(=O)=O)NC(=O)C1(F)CCN(S(=O)(=O)c2cnc(C(F)(F)F)cc2-c2ccc(F)cc2Cl)CC1 [Compound 212, (S,Z)-1-((4-(2-chloro-4-fluorophenyl)-6-(trifluoromethyl)pyridin-3-yl)sulfonyl)-4-fluoro-N-(4-(methylsulfonyl)but-3-en-2-yl)piperidine-4-carboxamide]
390 nM	C[C@@H](NC(=O)C1(F)CCN(S(=O)(=O)c2ccc(C(F)(F)F)cc2-c2ccccc2Cl)CC1)C1=CS(=O)(=O)C1 [Compound 236, (R)-1-((2′-chloro-5-(trifluoromethyl)-[1,1′-biphenyl]-2-yl)sulfonyl)-N-(1-(1,1-dioxido-2H-thiet-3-yl)ethyl)-4-fluoropiperidine-4-carboxamide]
128 nM	CC[C@H](/C=C/S(=O)(=O)C1CNC1)NC(=O)C1(F)CCN(S(=O)(=O)c2ccc(Br)cc2-c2ccccc2Cl)CC1 [Compound 77, (R,E)-N-(1-(azetidin-3-ylsulfonyl)pent-1-en-3-yl)-1-((5-bromo-2′-chloro-[1,1′-biphenyl]-2-yl)sulfonyl)-4-fluoropiperidine-4-carboxamide]
380 nM	COc1ccc(S(=O)(=O)N2CCC(F)(C(=O)N[C@H](C)/C=C/C(=O)N3CC(F)(F)C3)CC2)c(-c2ccccc2Cl)c1 [Compound 137, (R,E)-1-((2′-chloro-5-methoxy-[1,1′-biphenyl]-2-yl)sulfonyl)-N-(5-(3,3-difluoroazetidin-1-yl)-5-oxopent-3-en-2-yl)-4-fluoropiperidine-4-carboxamide]
481 nM	C[C@H](/C=C\S(C)(=O)=O)NC(=O)C1(F)CCN(S(=O)(=O)c2ccc(Br)cc2-c2cc(F)ccc2Cl)CC1 [Compound 48, (R,Z)-1-((5-bromo-2′-chloro-5′-fluoro-[1,1′-biphenyl]-2-yl)sulfonyl)-4-fluoro-N-(4-(methylsulfonyl)but-3-en-2-yl)piperidine-4-carboxamide]
95.6 nM	O=C(N[C@H]1C=CS(=O)(=O)C1)C1(F)CCN(S(=O)(=O)c2ccc(Br)cc2-c2ccccc2Cl)CC1 [Compound 67, (S)-1-((5-bromo-2′-chloro-[1,1′-biphenyl]-2-yl)sulfonyl)-N-(1,1-dioxido-2,3-dihydrothiophen-3-yl)-4-fluoropiperidine-4-carboxamide]
220 nM	COC1(C(=O)N[C@H](C)/C=C\S(C)(=O)=O)CCN(S(=O)(=O)c2ccc(Br)cc2-c2ccccc2Cl)CC1 [Compound 133, (R,Z)-1-((5-bromo-2′-chloro-[1,1′-biphenyl]-2-yl)sulfonyl)-4-methoxy-N-(4-(methylsulfonyl)but-3-en-2-yl)piperidine-4-carboxamide]
370 nM	COc1ccc(S(=O)(=O)N2CCC(F)(C(=O)N[C@H](C)C3=CS(=O)(=O)C3)CC2)c(-c2ccccc2Cl)c1 [Compound 235, (R)-1-((2′-chloro-5-methoxy-[1,1′-biphenyl]-2-yl)sulfonyl)-N-(1-(1,1-dioxido-2H-thiet-3-yl)ethyl)-4-fluoropiperidine-4-carboxamide]
280 nM	COc1ccc(S(=O)(=O)N2CCC(F)(C(=O)N[C@H](/C=C\S(C)(=O)=O)CC(F)(F)F)CC2)c(-c2ccccc2Cl)c1 (single isomer, unassigned) [Compound 239, (*S,Z)-1-((2′-chloro-5-methoxy-[1,1′-biphenyl]-2-yl)sulfonyl)-4-fluoro-N-(5,5,5-trifluoro-1-(methylsulfonyl)pent-1-en-3-yl)piperidine-4-carboxamide]
960 nM	Cc1ccc(-c2cc(Br)ccc2S(=O)(=O)N2CCC(F)(C(=O)N[C@H](C)/C=C\S(C)(=O)=O)CC2)c(Cl)c1 [Compound 53, (R,Z)-1-((5-bromo-2′-chloro-4′-methyl-[1,1′-biphenyl]-2-yl)sulfonyl)-4-fluoro-N-(4-(methylsulfonyl)but-3-en-2-yl)piperidine-4-carboxamide]
410 nM	C[C@H](/C=C\[S@](C)(=N)=O)NC(=O)C1(F)CCN(S(=O)(=O)c2ccc(Br)cc2-c2ccccc2Cl)CC1 (single isomer, unassigned) [Compound 74, 1-((5-bromo-2′-chloro-[1,1′-biphenyl]-2-yl)sulfonyl)-4-fluoro-N-((R,Z)-4-((*R)-S-methylsulfonimidoyl)but-3-en-2-yl)piperidine-4-carboxamide]
710 nM	C[C@H](/C=C\S(C)(=O)=O)NC(=O)C1(F)CCN(S(=O)(=O)c2ccc(Br)cc2-c2cccc(Cl)c2)CC1 [Compound 55, (R,Z)-1-((5-bromo-3′-chloro-[1,1′-biphenyl]-2-yl)sulfonyl)-4-fluoro-N-(4-(methylsulfonyl)but-3-en-2-yl)piperidine-4-carboxamide]
470 nM	C[C@H](/C=C\S(C)(=O)=O)NC(=O)C1(F)CCN(S(=O)(=O)c2ccc(CO)cc2-c2ccccc2Cl)CC1 [Compound 130, (R,Z)-1-((2′-chloro-5-(hydroxymethyl)-[1,1′-biphenyl]-2-yl)sulfonyl)-4-fluoro-N-(4-(methylsulfonyl)but-3-en-2-yl)piperidine-4-carboxamide]
440 nM	CC(O)c1ccc(S(=O)(=O)N2CCC(F)(C(=O)N[C@H](C)/C=C\S(C)(=O)=O)CC2)c(-c2ccccc2Cl)c1 (stereo partly drawn) [Compound 129, 1-((2′-chloro-5-(1-hydroxyethyl)-[1,1′-biphenyl]-2-yl)sulfonyl)-4-fluoro-N-((R,Z)-4-(methylsulfonyl)but-3-en-2-yl)piperidine-4-carboxamide]
37.9 nM	O=C(N[C@@H]1C=CS(=O)(=O)C1)C1(F)CCN(S(=O)(=O)c2ccc(Br)cc2-c2ccccc2Cl)CC1 [Compound 66, (R)-1-((5-bromo-2′-chloro-[1,1′-biphenyl]-2-yl)sulfonyl)-N-(1,1-dioxido-2,3-dihydrothiophen-3-yl)-4-fluoropiperidine-4-carboxamide]
500 nM	C[C@H](/C=C\S(C)(=O)=O)NC(=O)C1(F)CCN(C(=O)[C@H]2CN(CC(F)(F)F)C[C@H]2c2ccccc2Cl)CC1 [Compound 163, 1-((3R,4R)-4-(2-chlorophenyl)-1-(2,2,2-trifluoroethyl)pyrrolidine-3-carbonyl)-4-fluoro-N-((R,Z)-4-(methylsulfonyl)but-3-en-2-yl)piperidine-4-carboxamide]
150 nM	Cc1c(F)cccc1-c1cc(Br)ccc1S(=O)(=O)N1CCC(F)(C(=O)N[C@H](C)/C=C\S(C)(=O)=O)CC1 [Compound 56, (R,Z)-1-((5-bromo-3′-fluoro-2′-methyl-[1,1′-biphenyl]-2-yl)sulfonyl)-4-fluoro-N-(4-(methylsulfonyl)but-3-en-2-yl)piperidine-4-carboxamide]
390 nM	COc1ccc(S(=O)(=O)N2CC[C@](F)(C(=O)N[C@H](C)/C=C\S(C)(=O)=O)C[C@H]2C)c(-c2ccccc2Cl)c1 (single isomer, unassigned) [Compound 147, (2*R,4*R)-1-((2′-chloro-5-methoxy-[1,1′-biphenyl]-2-yl)sulfonyl)-4-fluoro-2-methyl-N-((R,Z)-4-(methylsulfonyl)but-3-en-2-yl)piperidine-4-carboxamide]

Source: US20250026721A1, “COMPOUNDS AND METHODS FOR MODULATING RAS-PI3K” (Vividion Therapeutics, Inc., priority 2023, published 2025)
